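All cell lines were grown in 96-well plates and treated with compound for 48 hours. At the GI50, growth is halved. Definition used: TGI = concentration required for complete inhibition of growth.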
Key:
Test in all cases: DTP human tumour cell line panel, 48 h; in the data active means GI50 below about 0.43 µM; inactive means the rest
[1] = system: SNB-75 CNS
[2] = system: DU-145 prostate
[3] = system: IGROV1 ovarian
[4] = system: M14 melanoma
[5] = system: MCF7 breast
[6] = system: MDA-MB-435
[7] = system: MALME-3M melanoma
[8] = system: SF-539 CNS
[9] = system: HOP-92 NSCLC
[10] = system: SN12C renal
[11] = system: SF-268 CNS
[12] = system: HCC-2998 colon
[13] = system: OVCAR-4 ovarian
[14] = system: UACC-257 melanoma
[15] = system: U251 CNS
[16] = system: NCI-H460 lung
[17] = system: HCT-15 colon
[18] = system: OVCAR-5 ovarian
[19] = system: KM12 colon
[20] = system: NCI-H226 lung
[21] = system: RXF 393 renal
[22] = system: PC-3 prostate
[23] = system: NCI-H522 lung
[24] = system: BT-549 breast
[25] = system: RPMI-8226 leukemia
[26] = system: SR leukemia
[27] = system: HOP-62 NSCLC
[28] = system: MOLT-4 leukemia
[29] = system: SNB-19 CNS
[30] = system: HT29 colon
[31] = system: LOX IMVI melanoma
[32] = system: HL-60(TB) leukemia
[33] = system: COLO 205 colon
[34] = system: CCRF-CEM leukemia
[35] = system: UO-31 renal
[36] = system: SK-MEL-28 melanoma
[37] = system: OVCAR-8 ovarian
[38] = system: SK-OV-3 ovarian
[39] = system: NCI-H23 lung
[40] = system: T-47D breast
[41] = system: ACHN renal
[42] = system: SK-MEL-5 melanoma
[43] = system: MDA-MB-231 breast
[44] = system: A498 renal
[45] = system: SF-295 CNS
[46] = system: HCT-116 colon
[47] = system: TK-10 renal
[48] = system: UACC-62 melanoma
[49] = system: HS 578T breast
[50] = system: 786-0 renal
[51] = system: EKVX NSCLC
[52] = system: A549 NSCLC
[53] = system: K-562 leukemia
[54] = system: OVCAR-3 ovarian
[55] = system: SW-620 colon
[56] = system: SK-MEL-2 melanoma
[57] = system: CAKI-1 renal
[58] = system: NCI/ADR-RES ovarian

COc1ccc2c(c1)OC(N)=C(C#N)C2c1ccc(F)c(F)c1 (stereo not given)
inactive: GI50 [2] 0.522 µM | GI50 [3] 0.715 µM | GI50 [7] 0.619 µM | GI50 [9] 6.53 µM | GI50 [10] 0.718 µM | GI50 [11] 0.754 µM | GI50 [12] 2.5 µM | GI50 [13] 2.33 µM | GI50 [18] 2.84 µM | GI50 [20] 19.2 µM | GI50 [22] 0.569 µM | GI50 [24] 0.598 µM | GI50 [25] 0.455 µM | GI50 [27] 0.515 µM | GI50 [28] 0.55 µM | GI50 [29] 0.58 µM | GI50 [31] 0.589 µM | GI50 [33] 0.437 µM | GI50 [35] 0.648 µM | GI50 [36] 3.43 µM | GI50 [37] 0.602 µM | GI50 [38] 0.495 µM | GI50 [39] 1.15 µM | GI50 [41] 0.564 µM | GI50 [43] 1.33 µM | GI50 [47] 14.7 µM | GI50 [50] 0.595 µM | GI50 [51] 0.751 µM | GI50 [52] 0.706 µM
65.6 µM: TGI [24]
5.2 µM: TGI [33]
> 44.9 µM: TGI [12]
62.1 µM: TGI [43]
> 55.3 µM: TGI [40]
> 64.1 µM: TGI [38]
29.7 µM: TGI [42]
1.05 µM: TGI [8]
> 46.3 µM: TGI [49]
> 44.3 µM: TGI [37]
5.96 µM: TGI [44]
26 µM: TGI [19]
> 65.4 µM: TGI [11]
> 70.6 µM: TGI [10]
41.6 µM: TGI [16]
25.5 µM: TGI [46]
5.57 µM: TGI [21]
> 92.2 µM: TGI [27]
> 93.7 µM: TGI [56]
active: GI50 [1] 0.186 µM | GI50 [4] 0.325 µM | GI50 [5] 0.333 µM | GI50 [6] 0.133 µM | GI50 [8] 0.271 µM | GI50 [14] 0.408 µM | GI50 [15] 0.425 µM | GI50 [16] 0.41 µM | GI50 [17] 0.348 µM | GI50 [19] 0.349 µM | GI50 [21] 0.365 µM | GI50 [23] 0.255 µM | GI50 [26] 0.325 µM | GI50 [30] 0.318 µM | GI50 [32] 0.272 µM | GI50 [34] 0.409 µM | GI50 [40] 0.334 µM | GI50 [42] 0.415 µM | GI50 [44] 0.231 µM | GI50 [45] 0.393 µM | GI50 [46] 0.41 µM | GI50 [48] 0.418 µM | GI50 [49] 0.426 µM | GI50 [53] 0.257 µM | GI50 [54] 0.324 µM | GI50 [55] 0.398 µM | GI50 [56] 0.343 µM | GI50 [57] 0.394 µM | GI50 [58] 0.351 µM
> 96.6 µM: TGI [50]
4.87 µM: TGI [1]
> 52.4 µM: TGI [45]
> 46.5 µM: TGI [2]
0.716 µM: TGI [32]
4.77 µM: TGI [30]
69.3 µM: TGI [9]
> 45.5 µM: TGI [15]
> 67.8 µM: TGI [5]
3.4 µM: TGI [54]
77.4 µM: TGI [7]
> 59 µM: TGI [17]
> 72.8 µM: TGI [41]
10.7 µM: TGI [58]
31.7 µM: TGI [25]
> 100 µM: TGI [3] | TGI [4] | TGI [13] | TGI [14] | TGI [18] | TGI [20] | TGI [22] | TGI [28] | TGI [29] | TGI [31] | TGI [34] | TGI [35] | TGI [36] | TGI [39] | TGI [47] | TGI [48] | TGI [51] | TGI [52] | TGI [53] | TGI [55] | TGI [57]
> 52.2 µM: TGI [26]
0.664 µM: TGI [6]
9.25 µM: TGI [23]

Cc1ccc([I+]c2ccc(C)cc2)cc1
27.4 µM: TGI [30]
44.8 µM: TGI [7]
30.4 µM: TGI [16]
inactive: GI50 [1] 7.44 µM | GI50 [2] 12 µM | GI50 [3] 4.42 µM | GI50 [4] 10.8 µM | GI50 [5] 4.01 µM | GI50 [6] 5.28 µM | GI50 [7] 1.97 µM | GI50 [8] 16.4 µM | GI50 [9] 4.69 µM | GI50 [10] 18.6 µM | GI50 [11] 7.49 µM | GI50 [12] 6.44 µM | GI50 [13] 7.75 µM | GI50 [14] 2.71 µM | GI50 [15] 4.1 µM | GI50 [16] 3.48 µM | GI50 [17] 59.5 µM | GI50 [18] 39.2 µM | GI50 [19] 4.27 µM | GI50 [20] 17.8 µM | GI50 [21] 36.6 µM | GI50 [22] 6.73 µM | GI50 [23] 12.3 µM | GI50 [24] 5.28 µM | GI50 [25] 1.16 µM | GI50 [29] 16.1 µM | GI50 [30] 0.887 µM | GI50 [31] 2.33 µM | GI50 [33] 6.93 µM | GI50 [35] 21.3 µM | GI50 [36] 10.6 µM | GI50 [37] 2.2 µM | GI50 [38] 21.8 µM | GI50 [39] 2.03 µM | GI50 [40] 3.69 µM | GI50 [41] 14.9 µM | GI50 [42] 0.79 µM | GI50 [43] 25.1 µM | GI50 [44] 2.28 µM | GI50 [45] 1.86 µM | GI50 [46] 0.821 µM | GI50 [47] 6.63 µM | GI50 [48] 8.86 µM | GI50 [49] 24.8 µM | GI50 [50] 28.8 µM | GI50 [51] 0.484 µM | GI50 [52] 4.22 µM | GI50 [54] 7.63 µM | GI50 [55] 3.94 µM | GI50 [56] 14.1 µM | GI50 [57] 4.55 µM | GI50 [58] > 100 µM
75.7 µM: TGI [24]
8.74 µM: TGI [45]
95.2 µM: TGI [33]
57.4 µM: TGI [14]
71.4 µM: TGI [57]
46.5 µM: TGI [37]
50 µM: TGI [25]
93.4 µM: TGI [39]
94.4 µM: TGI [56]
77.3 µM: TGI [6]
> 100 µM: TGI [1] | TGI [2] | TGI [3] | TGI [4] | TGI [5] | TGI [8] | TGI [9] | TGI [10] | TGI [11] | TGI [12] | TGI [13] | TGI [15] | TGI [17] | TGI [18] | TGI [20] | TGI [21] | TGI [22] | TGI [23] | TGI [29] | TGI [31] | TGI [35] | TGI [36] | TGI [38] | TGI [41] | TGI [43] | TGI [44] | TGI [46] | TGI [47] | TGI [48] | TGI [49] | TGI [50] | TGI [52] | TGI [54] | TGI [55] | TGI [58]
42.5 µM: TGI [51]
54.2 µM: TGI [40]
3.89 µM: TGI [42]
52.2 µM: TGI [19]

Source: PubChem BioAssay (NCI)
